Our source for the XC50 values is ChEMBL document CHEMBL1157539, “Thousands of chemical starting points for antimalarial lead identification” (Nature, 2010).

The assay deals with Plasmodium falciparum. Put plainly: GSK_TCMDC: Inhibition of Plasmodium falciparum 3D7 in whole erythrocytes, using parasite LDH activity as an index of growth. Type of assay: functional, organism-based. To be noted: Plasmodium falciparum, 3D7.

In turn, `COc1cc(NC(=O)c2cccs2)c(OC)cc1NC(=O)Nc1cccc(Cl)c1` showed an XC50 of 1000 nM.
As for `COc1cc(C(=O)NC2CCN(Cc3ccccc3)CC2)ccc1-c1cc2cc(Cl)c(Cl)cc2[nH]1`, the XC50 worked out at 227 nM.
As for `CCCOc1ccc(N2C(N)=NC(N)=NC2(C)C)cc1`, the XC50 was 487 nM.
Turning to `O=[N+]([O-])c1cccc(NC(=S)N2CCCN(Cc3ccc(F)cc3F)CC2)c1`, the XC50 came to 831 nM.
Take `O=C(NCc1ccccc1)OC1CNCCC1c1ccc(C(O)Cc2ccccc2)cc1` (stereo unspecified): the XC50 is 576 nM.
As to `Cc1cc(C(=O)CSc2nc3ccccc3n2-c2ccccc2)c(C)n1C1CCS(=O)(=O)C1` (stereo unspecified), the XC50 is 1000 nM.
Then `COc1ccc(CNCc2cccc(-c3cccc(-c4nc5cc(F)ccc5[nH]4)c3)c2)cc1`, with 300 nM.
Then `CN1CCN(Cc2ccc(OCc3cccc(COc4ccc(CN5CCN(C)CC5)cc4I)c3)c(I)c2)CC1`, with 1010 nM; and `COc1cccc(C(=O)Nc2ccc(Nc3nc(C)cc(N(C)C)n3)cc2)c1`, with 940 nM.
For `O=C1Nc2ccc3ncccc3c2/C1=C/Nc1ccc(Cn2ccnc2)cc1`, the XC50 came out at 659 nM.
In turn, `CCOc1ccc(Br)cc1/C=C/C(=O)Nc1ccc(C2CCN(C)CC2)cc1` came in with an XC50 of 450 nM.
The molecule `Nc1nc(N)c2c3c(ccc2n1)NCCC3` returned an XC50 of 734 nM.
On to `O=C(Nc1cccc(-c2nn3ccccc3c2-c2ccnc(Nc3ccc(Cc4ccncc4)cc3)n2)c1)c1c(F)cccc1F`, for which the XC50 came out at 296 nM.
The molecule `CC1=C(C(=O)Nc2cc3cn[nH]c3cc2F)C(c2cccc(NS(C)(=O)=O)c2)CC(=O)N1` (stereo unspecified) came in with an XC50 of 434 nM.
`Cc1cccc(C(=O)Nc2ccnc(N(C)CCCN(C)Cc3cccc(O)c3)c2)c1` registered an XC50 of 967 nM.
With `COCCN(C)CCCOc1cc2c(cc1OC)ncn2-c1cc(OCc2ccccc2C(F)(F)F)c(C(N)=O)s1`, the XC50 is 710 nM.
Then `Cn1nccc1C(=O)NCCNCc1cccc(-c2ccc(-c3nc4cc(C(F)(F)F)ccc4[nH]3)s2)c1`, with 151 nM; and `O=C(/C=C/c1ccc(F)c(Br)c1)NCCCCCN1CCC(c2c[nH]c3ccccc23)CC1`, with 864 nM.
Consider `Cc1ccc(NC(=O)N2CCCN(CCCCCNC(=O)/C=C/c3ccc(Cl)c(Cl)c3)CC2)cc1`, for which the XC50 was determined as 758 nM.
Turning to `Cc1c(Cl)cccc1N=C(S)NN=Cc1ccccn1`, the XC50 stood at 603 nM.
For `COc1ccc(-c2cc(C(=O)N[C@@H](CC3CCCCC3)C(=O)NCCN3CCCC3)ccc2O)cc1`, the XC50 was 868 nM.
Then `O=C(Nc1ccccc1F)NC1CCN(c2ccnc(Nc3ccc(F)cc3)n2)C1` (stereo unspecified), with 854 nM.
As for `Cc1cccc2nc(-c3cccc(-c4ccc(NC(=O)NC(C)C)cc4)c3)[nH]c12`, the figure is 754 nM; as for `COc1ccc(C=Cc2cc(=N)c3ccccc3[nH]2)cc1Br`, 713 nM.
As for `Cn1nc(-c2cccc(CNCCc3cccs3)c2)c2cnc(NC3CCCC3)nc21`, the figure is 1890 nM.
For `O=C(c1ccc2ccccc2n1)N1CCCc2cc(Br)ccc21`, the XC50 came out at 858 nM.
`COc1cc2s/c(=N\C(=O)c3cccc([N+](=O)[O-])c3)n(C)c2cc1OC` showed an XC50 of 722 nM.
As for `COc1cccc(C(=O)NCc2nnc(S)n2-c2ccc(Cl)c(Cl)c2)c1`, the figure is 173 nM; as for `COc1ccc(Br)cc1C1Nc2ccc3ccccc3c2C2=C1C(=O)CC(c1ccccc1)C2` (stereo unspecified), 590 nM; as for `Cc1ccc2cc(C3NC(=O)c4ccccc4N3)c(Cl)nc2c1` (stereo unspecified), 945 nM.
Turning to `COC(=O)c1ccc(CC(C)NCC(O)c2ccccc2Cl)cc1` (stereo unspecified), the XC50 was found to be 1010 nM.
As for `COc1ccc(CNCc2ccsc2)cc1-c1ccc(S(=O)(=O)NCCN2CCCC2)c(C)c1`, the figure is 898 nM.
Take `Cc1cc(C)n2nc(C(=O)Nc3cc(C(F)(F)F)ccc3N3CCOCC3)nc2n1`: the XC50 came to 119 nM.
Then `COc1cc(O)c2c(=O)c(OC)c(-c3cccc(Cl)c3OC3O[C@H](CO)[C@@H](O)[C@H](O)[C@H]3O)oc2c1OC` (stereo partly specified), with 774 nM; and `COc1ccc2[nH]cc(C3CCN(CCCCCNC(=O)c4ccc(-c5ccccc5)cc4)CC3)c2c1`, with 795 nM; and `COCCCNc1nc2cc(OC)c(OC)cc2c2nc(-c3ccccc3)nn12`, with 192 nM.
Then `O=C(/C=C/c1ccc(Cl)c(Cl)c1)N1CCC(CCN2CCC(c3c[nH]c4ccncc34)CC2)CC1`, with 1140 nM; and `Cc1ccc2nc(N/C(N)=N/C(=O)NC3CCCCC3)nc(C)c2c1`, with 624 nM; and `O=C(Nc1ccc(Cl)cc1)c1cc(Cl)ccc1NC(=O)C1CCc2ccccc2O1` (stereo unspecified), with 1790 nM.
With `CCN(CCCN1CCCCC1)c1cc(C)nc(Nc2cc(Br)ccc2C)n1`, the XC50 came out at 405 nM.
As for `Cc1cc(F)ccc1C1CCN(CCCCNC(=O)c2ccc(NC(=O)c3ccc(Cl)cc3)cc2)CC1`, the figure is 692 nM.
`Cc1ccccc1CNc1noc(-c2c(F)cccc2Cl)n1`: the XC50 worked out at 722 nM.
In turn, `C=C[C@H]1CN(CCCCCCC)CC[C@H]1CC(=O)Nc1cnnc2ccc(OC)cc12` showed an XC50 of 529 nM.
As for `CC1CCCN(Cc2c(O)ccc3c(O)c(-c4nc5ccccc5s4)c(=N)oc23)C1` (stereo unspecified), the figure is 140 nM; as for `CCOC(=O)c1c(C)n(-c2ccc(Cl)cc2)c2ccc(OC(=O)C=Cc3ccccc3)cc12`, 698 nM.
With `OC1CCCN(Cc2ccc(-c3ccc(-c4nc5cc(F)ccc5[nH]4)s3)cc2)C1` (stereo unspecified), the XC50 stood at 851 nM.
In the case of `O=C(NCCCCN1CCN(CC=Cc2ccccc2)CC1)c1ccc(NC(=O)c2cc(Cl)cc(Cl)c2)cc1`, the XC50 was 208 nM.
`NC(=O)c1cccc(-n2ccc3cc(CNC4Cc5ccccc5C4)ccc32)c1` came in with an XC50 of 1130 nM.
For `COc1ccccc1CCNc1nccc(N[C@@H](Cc2ccccc2)C(=O)NCc2cccs2)n1`, the XC50 turned out to be 871 nM.
Then `C=CCc1cc(Cc2cnc(N)nc2N)cc(CCC)c1OC`, with 1360 nM.
For the molecule `Cc1ccc(CN(Cc2ccc(C(=O)N(C)C)cc2)Cc2ccc3c(c2)OCCO3)cc1C`, the XC50 worked out at 804 nM.
`Cc1noc(C)c1CN1CCCN(c2ccc3c(c2)CCN(Cc2ccc(-c4ncc[nH]4)cc2)CC3)CC1` showed an XC50 of 864 nM.
On to `CCCCOC(=O)NCCCC[C@H](NC(=O)OC(C)(C)C)C(=O)N[C@H](C(=O)OC(c1ccccc1)c1ccccc1)[C@H]1O[C@@H](n2ccc(=O)[nH]c2=O)[C@@H]2OC(C)(C)O[C@@H]21`, for which the XC50 is 1090 nM.
Take `CN(C)CCOc1cc(NC(=O)Nc2ccc(-c3ccncc3)c(C(F)(F)F)c2)ccc1Cl`: the XC50 was determined as 991 nM.
As for `Nc1cccc(CNCc2cccc(-c3cccc(-c4nc5cc(F)ccc5[nH]4)c3)c2)c1`, the figure is 692 nM; as for `CC(C)CCN(Cc1cncn1Cc1cccc(Cl)c1)C(=O)c1cncc(-c2ccccc2)c1`, 762 nM.
As for `Nc1ccc(-c2ccc(NC(=O)Nc3ccccc3)cc2)cn1`, the XC50 was 920 nM.
In turn, `Cn1cc(CCNc2ccnc(N3CCC(c4ncc[nH]4)CC3)n2)c2ccccc21` displayed an XC50 of 1200 nM.
`CNc1nc(N/N=C/c2cc3c(cc2[N+](=O)[O-])OCO3)nc(Nc2cccc(C(F)(F)F)c2)n1` returned an XC50 of 771 nM.
As for `CCN1CCN(Cc2ccc(NC(=O)c3cc4ccc5cccnc5c4[nH]3)cc2)CC1`, the figure is 848 nM; as for `CC(C)CNCc1cccc(-c2ccc(CN(C(=O)NCCc3ccccc3)C3CCN(Cc4ccccc4)CC3)cc2)c1`, 764 nM; as for `O=C(Nc1ccc(Cl)c(C(F)(F)F)c1)c1ccc(C(=O)Nc2ccc(Cl)c(C(F)(F)F)c2)cc1`, 1000 nM.
As for `CC[C@H]1CN2CC[C@H]1C[C@H]2[C@H](O)c1cc(-c2ccccc2F)nc2ccc(OC)cc12`, the figure is 78.9 nM; as for `COc1cc(Cc2cnc(N)nc2N)c2c(c1OC)OC(C)(C)C=C2`, 1190 nM.
As for `COC(=O)c1cc(C(O)CNC(C)CCCc2ccccc2)ccc1O` (stereo unspecified), the figure is 742 nM; as for `COc1cc2c(c(Cl)c1OC)CCN(C(=O)C(F)(F)F)CC2c1ccccc1` (stereo unspecified), 441 nM; as for `COc1ccc(NC(=O)Nc2cccc(-c3ccncc3)c2)cc1N1CCN(C)CC1`, 552 nM.
As to `O=C(Nc1ccccc1)c1nn(CCCN2CCC(N3CCCC3)CC2)cc1-c1ccc(Cl)c(Cl)c1`, the XC50 is 240 nM.
On to `COc1cc2nc(Nc3ccc(Oc4ccccc4)cc3)nc(Nc3ccc(Oc4ccccc4)cc3)c2cc1OC`, for which the XC50 was 934 nM.
Molecule `CCN(CC)CCOc1ccc(N(Cc2ccc(C(C)(C)C)cc2)C(=O)c2ccc(Cc3ccccc3)cc2)cc1OC` returned an XC50 of 773 nM.
In turn, `FC(F)(F)c1ccc(NC(=S)N2CCC(CCN3CCC(c4c[nH]c5ccccc45)CC3)CC2)cc1` had an XC50 of 885 nM.
As for `O=C(Nc1cccc(-c2cccc(-c3nc4cc(C(F)(F)F)ccc4[nH]3)c2)c1)c1c[nH]cn1`, the figure is 206 nM.
Then `CCCC(C)c1cnc2nc(N)nc(N)c2c1C` (stereo unspecified), with 28.4 nM.
As for `O=C(CN1CCN(C(=O)c2ccco2)CC1)Nc1ccc(Br)cc1Cl`, the figure is 773 nM; as for `O=C(NCCCCNCC(Cc1cccc(O)c1)c1ccccc1)c1ccc(NC(=O)c2ccc(Cl)cc2)cc1` (stereo unspecified), 1040 nM.
As for `CC(C)(C)NC(=O)C(c1ccc(F)cc1)N(C(=O)c1ccc(CN2CCOCC2)o1)c1ccc(C2CCCCC2)cc1` (stereo unspecified), the XC50 amounted to 925 nM.
As for `CCCN(CCC)CCCOc1ccc(C(=O)c2c(-c3ccc(OCCCN(CCC)CCC)cc3)oc3ccc(Cl)cc23)cc1`, the figure is 340 nM; as for `COc1ccc(OCCCON2C(=N)N=C(N)NC2(C)C)cc1`, 3.2 nM.
As for `CN(CCCCCN1CCC(NC(=O)Nc2ccc(C(F)(F)F)cc2)C1)C(=O)/C=C/c1ccc(Cl)c(Cl)c1` (stereo unspecified), the figure is 771 nM; as for `c1cc(CNCC2CCN(CC3CCCCC3)CC2)cc(-n2ccnc2)c1`, 545 nM; as for `COc1cc(NCC2(CNCc3cn(Cc4ccccc4)c4ccccc34)CCCCC2)nc2ccccc12`, 946 nM.
For `O=C(C=Cc1ccccc1O)N1CCC(CN2CCC(c3c[nH]c4ccccc34)CC2)CC1`, the XC50 was found to be 961 nM.
Then `CN1CCCC(CN2CCN(Cc3cccc(-c4ccc(-c5nc6ccccc6[nH]5)s4)c3)CC2)C1` (stereo unspecified), with 149 nM; and `Cc1ccccc1CN1CCCN(Cc2ccc(C(=O)Nc3ccc(C(C)(C)C)cc3)cc2)CC1`, with 863 nM; and `COc1ccc2c(CNCCCCCCNCc3c(OC)ccc4cc(OC)ccc34)c(OC)ccc2c1`, with 560 nM.
`Cc1cc(-c2cccc3c(C(=O)N4CCc5cc6nccc(N7CCN8CCC[C@H]8C7)c6cc54)cccc23)cc(C)n1` came in with an XC50 of 709 nM.
